# Assay results reported in the kinase profiling compilation of Christmann-Franck et al. (2016).
# Key:
# Experiment in all cases: radiometric filter-binding kinase assay
# SRC (chicken) = details: ATP 50 µM, accession and sequence are those of the human protein
# MAPK12 (human) = MAPK12 (human) (UniProt P53778); details: ATP 5 µM
# CSNK1D (human) = CSNK1D (human) (UniProt P48730); details: ATP 20 µM
# PIM1 (human) = PIM1 (human) (UniProt P11309); details: ATP 20 µM
# PHKG1 or PHKG2 (human) = PHKG1 or PHKG2 (human) (UniProt P15735+Q16816); details: ATP 50 µM
# RPS6KA5 KD1 KD2 (human) = RPS6KA5 KD1 KD2 (human) (UniProt O75582); details: ATP 20 µM
# NEK6 (human) = NEK6 (human) (UniProt Q9HC98); details: ATP 50 µM
# NEK2 (human) = NEK2 (human) (UniProt P51955); details: ATP 50 µM
# PLK1 (human) = PLK1 (human) (UniProt P53350); details: ATP 5 µM
# BRSK2 (human) = BRSK2 (human) (UniProt Q8IWQ3); details: ATP 50 µM
# CHEK1 (human) = CHEK1 (human) (UniProt O14757); details: ATP 20 µM
# AURKC (human) = AURKC (human) (UniProt Q9UQB9); details: ATP 5 µM
# HIPK3 (human) = HIPK3 (human) (UniProt Q9H422); details: ATP 20 µM
# DYRK1A (human) = DYRK1A (human) (UniProt Q13627); details: ATP 50 µM
# PRKAA1 or PRKAA2 (rat) = details: accession and sequence are those of the human protein
# PAK6 (human) = PAK6 (human) (UniProt Q9NQU5); details: ATP 20 µM
# MAPK11 (human) = MAPK11 (human) (UniProt Q15759); details: ATP 20 µM
# EEF2K (human) = EEF2K (human) (UniProt O00418); details: ATP 5 µM
# RPS6KA1 KD1 KD2 (human) = RPS6KA1 KD1 KD2 (human) (UniProt Q15418); details: ATP 50 µM
# AKT2 (human) = AKT2 (human) (UniProt P31751); details: ATP 50 µM
# MAPK15 (human) = MAPK15 (human) (UniProt Q8TD08); details: ATP 5 µM
# STK3 (human) = STK3 (human) (UniProt Q13188); details: ATP 20 µM
# LCK (mouse) = details: ATP 50 µM, accession and sequence are those of the human protein
# MKNK2 (human) = MKNK2 (human) (UniProt Q9HBH9); details: ATP 50 µM
# MYLK (human) = MYLK (human) (UniProt Q15746); details: ATP 50 µM
# MAPKAPK2 (human) = MAPKAPK2 (human) (UniProt P49137); details: ATP 20 µM
# RPS6KA3 KD1 KD2 (human) = RPS6KA3 KD1 KD2 (human) (UniProt P51812); details: ATP 50 µM
# PIM2 (human) = PIM2 (human) (UniProt Q9P1W9); details: ATP 5 µM
# MAPK9 (human) = MAPK9 (human) (UniProt P45984); details: ATP 20 µM
# Chain of MAPK9 (human) (P45984 whole entry, looked up): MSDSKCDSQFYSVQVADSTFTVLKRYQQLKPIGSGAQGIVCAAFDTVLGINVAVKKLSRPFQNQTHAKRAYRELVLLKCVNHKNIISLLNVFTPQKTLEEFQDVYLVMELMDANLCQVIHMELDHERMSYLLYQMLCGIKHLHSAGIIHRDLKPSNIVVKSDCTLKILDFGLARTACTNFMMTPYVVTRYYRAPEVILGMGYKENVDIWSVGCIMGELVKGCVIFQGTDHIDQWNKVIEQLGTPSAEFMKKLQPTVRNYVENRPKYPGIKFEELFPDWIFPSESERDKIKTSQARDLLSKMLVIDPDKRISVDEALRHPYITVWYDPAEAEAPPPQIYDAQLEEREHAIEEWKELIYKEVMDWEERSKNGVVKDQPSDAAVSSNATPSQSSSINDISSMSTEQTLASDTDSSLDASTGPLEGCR
# Chain of BRSK2 (human) (Q8IWQ3 whole entry, looked up): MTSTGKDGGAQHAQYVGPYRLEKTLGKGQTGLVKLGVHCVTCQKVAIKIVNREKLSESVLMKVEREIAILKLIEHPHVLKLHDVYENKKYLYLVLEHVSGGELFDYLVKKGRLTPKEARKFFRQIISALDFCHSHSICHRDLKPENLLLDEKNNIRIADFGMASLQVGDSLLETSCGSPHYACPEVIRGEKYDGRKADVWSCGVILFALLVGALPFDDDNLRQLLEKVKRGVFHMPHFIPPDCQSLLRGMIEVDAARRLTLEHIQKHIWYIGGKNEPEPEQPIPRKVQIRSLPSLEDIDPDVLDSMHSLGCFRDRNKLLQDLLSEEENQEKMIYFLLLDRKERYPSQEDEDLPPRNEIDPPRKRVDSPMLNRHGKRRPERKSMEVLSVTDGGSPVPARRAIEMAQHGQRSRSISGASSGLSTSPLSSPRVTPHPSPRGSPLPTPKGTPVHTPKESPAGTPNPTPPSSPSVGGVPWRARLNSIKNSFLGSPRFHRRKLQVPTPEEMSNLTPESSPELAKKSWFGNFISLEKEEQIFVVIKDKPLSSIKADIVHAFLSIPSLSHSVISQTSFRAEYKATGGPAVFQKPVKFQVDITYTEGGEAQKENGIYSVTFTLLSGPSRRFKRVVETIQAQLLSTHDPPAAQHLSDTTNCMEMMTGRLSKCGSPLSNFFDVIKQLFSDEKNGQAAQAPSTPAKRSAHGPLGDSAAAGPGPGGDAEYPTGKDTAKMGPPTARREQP
# Chain of PLK1 (human) (P53350 whole entry, looked up): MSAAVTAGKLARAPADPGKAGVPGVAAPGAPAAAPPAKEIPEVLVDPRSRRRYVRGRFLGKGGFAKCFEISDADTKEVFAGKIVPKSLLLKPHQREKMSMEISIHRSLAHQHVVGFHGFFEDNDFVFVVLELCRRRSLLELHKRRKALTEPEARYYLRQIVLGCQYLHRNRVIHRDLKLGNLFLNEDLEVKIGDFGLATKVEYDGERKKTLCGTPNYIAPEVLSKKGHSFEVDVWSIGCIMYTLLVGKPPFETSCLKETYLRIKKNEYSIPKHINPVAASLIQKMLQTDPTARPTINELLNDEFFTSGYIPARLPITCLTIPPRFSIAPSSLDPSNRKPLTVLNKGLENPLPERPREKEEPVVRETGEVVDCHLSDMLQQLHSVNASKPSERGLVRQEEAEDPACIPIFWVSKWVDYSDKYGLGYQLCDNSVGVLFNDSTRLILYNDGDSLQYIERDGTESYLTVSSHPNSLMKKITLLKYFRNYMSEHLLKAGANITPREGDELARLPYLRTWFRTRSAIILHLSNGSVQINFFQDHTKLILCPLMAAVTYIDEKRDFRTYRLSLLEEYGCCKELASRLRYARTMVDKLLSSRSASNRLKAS
# Chain of NEK2 (human) (P51955 whole entry, looked up): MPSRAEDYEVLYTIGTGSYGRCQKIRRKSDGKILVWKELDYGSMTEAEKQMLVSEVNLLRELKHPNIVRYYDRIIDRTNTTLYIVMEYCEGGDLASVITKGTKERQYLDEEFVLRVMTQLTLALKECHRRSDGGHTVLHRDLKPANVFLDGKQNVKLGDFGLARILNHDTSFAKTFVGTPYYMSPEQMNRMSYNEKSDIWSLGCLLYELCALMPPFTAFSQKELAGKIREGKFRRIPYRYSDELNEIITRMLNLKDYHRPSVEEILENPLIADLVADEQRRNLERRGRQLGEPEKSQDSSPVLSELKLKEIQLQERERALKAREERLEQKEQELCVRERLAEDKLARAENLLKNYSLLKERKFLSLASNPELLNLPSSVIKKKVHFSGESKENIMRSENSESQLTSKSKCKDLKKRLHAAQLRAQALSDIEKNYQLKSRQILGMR
# Chain of AKT2 (human) (P31751 whole entry, looked up): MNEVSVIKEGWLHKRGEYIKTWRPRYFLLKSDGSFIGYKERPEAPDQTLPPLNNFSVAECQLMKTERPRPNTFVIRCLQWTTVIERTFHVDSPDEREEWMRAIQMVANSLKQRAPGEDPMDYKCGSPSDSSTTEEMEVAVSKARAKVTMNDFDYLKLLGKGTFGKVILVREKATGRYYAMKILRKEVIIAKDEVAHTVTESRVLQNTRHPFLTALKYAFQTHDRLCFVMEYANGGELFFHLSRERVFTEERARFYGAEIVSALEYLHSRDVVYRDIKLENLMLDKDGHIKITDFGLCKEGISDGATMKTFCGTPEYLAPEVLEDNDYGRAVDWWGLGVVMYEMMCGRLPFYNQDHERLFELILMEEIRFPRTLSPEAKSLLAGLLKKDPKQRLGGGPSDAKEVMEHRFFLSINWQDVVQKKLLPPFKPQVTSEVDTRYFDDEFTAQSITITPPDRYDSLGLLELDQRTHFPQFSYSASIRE
# Chain of RPS6KA5 KD1 KD2 (human) (O75582 whole entry, looked up): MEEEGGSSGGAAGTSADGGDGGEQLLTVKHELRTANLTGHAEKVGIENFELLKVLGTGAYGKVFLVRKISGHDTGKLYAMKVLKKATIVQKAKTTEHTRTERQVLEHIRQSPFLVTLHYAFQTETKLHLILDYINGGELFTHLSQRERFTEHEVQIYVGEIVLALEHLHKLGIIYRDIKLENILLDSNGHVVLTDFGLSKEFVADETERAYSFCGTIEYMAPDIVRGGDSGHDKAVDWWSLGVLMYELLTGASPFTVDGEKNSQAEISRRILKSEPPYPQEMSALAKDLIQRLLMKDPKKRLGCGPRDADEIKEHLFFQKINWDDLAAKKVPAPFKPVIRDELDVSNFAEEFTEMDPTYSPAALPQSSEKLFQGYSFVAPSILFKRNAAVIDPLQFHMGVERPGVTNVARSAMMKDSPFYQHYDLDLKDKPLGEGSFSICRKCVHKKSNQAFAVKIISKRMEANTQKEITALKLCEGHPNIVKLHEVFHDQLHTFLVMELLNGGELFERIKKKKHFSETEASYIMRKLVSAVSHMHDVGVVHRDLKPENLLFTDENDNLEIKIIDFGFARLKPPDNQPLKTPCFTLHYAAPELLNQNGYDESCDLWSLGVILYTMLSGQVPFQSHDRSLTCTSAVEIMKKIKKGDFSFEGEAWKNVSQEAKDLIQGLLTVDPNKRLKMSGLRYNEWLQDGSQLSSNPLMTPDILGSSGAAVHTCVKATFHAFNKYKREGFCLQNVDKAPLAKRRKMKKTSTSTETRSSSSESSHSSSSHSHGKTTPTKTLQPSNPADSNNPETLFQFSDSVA
# Chain of CHEK1 (human) (O14757 whole entry, looked up): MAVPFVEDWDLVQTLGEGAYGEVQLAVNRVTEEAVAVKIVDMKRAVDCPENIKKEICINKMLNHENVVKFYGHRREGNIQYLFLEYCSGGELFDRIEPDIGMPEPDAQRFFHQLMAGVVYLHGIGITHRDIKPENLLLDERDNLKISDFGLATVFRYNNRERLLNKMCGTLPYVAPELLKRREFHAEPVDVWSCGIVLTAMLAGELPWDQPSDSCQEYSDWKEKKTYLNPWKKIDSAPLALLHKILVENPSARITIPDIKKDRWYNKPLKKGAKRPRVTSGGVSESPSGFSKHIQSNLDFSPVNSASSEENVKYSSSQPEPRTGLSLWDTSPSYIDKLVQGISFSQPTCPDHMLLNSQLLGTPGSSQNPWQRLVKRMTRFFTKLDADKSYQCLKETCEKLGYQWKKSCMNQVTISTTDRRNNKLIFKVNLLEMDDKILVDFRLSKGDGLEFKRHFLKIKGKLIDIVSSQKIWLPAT
# Chain of PHKG1 or PHKG2 (human) (P15735 whole entry, looked up): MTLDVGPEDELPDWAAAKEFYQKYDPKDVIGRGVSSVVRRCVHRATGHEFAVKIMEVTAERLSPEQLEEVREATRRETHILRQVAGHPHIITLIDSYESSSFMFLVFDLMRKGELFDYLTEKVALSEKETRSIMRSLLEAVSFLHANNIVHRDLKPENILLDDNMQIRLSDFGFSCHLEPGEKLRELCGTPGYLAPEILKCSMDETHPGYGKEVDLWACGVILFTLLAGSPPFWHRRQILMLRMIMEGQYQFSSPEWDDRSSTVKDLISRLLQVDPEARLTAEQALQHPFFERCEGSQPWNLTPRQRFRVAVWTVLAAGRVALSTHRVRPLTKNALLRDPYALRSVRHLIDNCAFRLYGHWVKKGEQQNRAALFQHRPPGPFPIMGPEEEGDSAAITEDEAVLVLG
# Chain of PHKG1 or PHKG2 (human) (Q16816 whole entry, looked up): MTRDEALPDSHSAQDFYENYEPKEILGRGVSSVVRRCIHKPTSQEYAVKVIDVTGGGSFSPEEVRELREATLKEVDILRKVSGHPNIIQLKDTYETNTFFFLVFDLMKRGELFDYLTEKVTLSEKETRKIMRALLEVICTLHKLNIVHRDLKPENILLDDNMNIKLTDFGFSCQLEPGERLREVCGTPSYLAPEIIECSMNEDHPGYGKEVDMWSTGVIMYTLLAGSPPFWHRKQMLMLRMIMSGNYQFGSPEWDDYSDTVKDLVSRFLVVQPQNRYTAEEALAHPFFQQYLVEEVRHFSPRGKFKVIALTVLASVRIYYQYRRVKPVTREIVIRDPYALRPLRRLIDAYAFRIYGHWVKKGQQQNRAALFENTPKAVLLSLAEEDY
smiles,measurement,setting,value
CN[C@@H]1C[C@@H]2O[C@@](C)([C@@H]1OC)n1c3ccccc3c3c4c(c5c6ccccc6n2c5c31)C(=O)N[C@@H]4O,residual activity,SRC (chicken); compound 0.01 µM,76%
same,residual activity,MAPK12 (human); compound 0.01 µM,104%
same,residual activity,CSNK1D (human); compound 0.01 µM,96%
same,residual activity,PIM1 (human); compound 0.01 µM,52%
same,residual activity,PHKG1 or PHKG2 (human); compound 0.01 µM,5%
same,residual activity,RPS6KA5 KD1 KD2 (human); compound 0.01 µM,68%
same,residual activity,NEK6 (human); compound 0.01 µM,104%
same,residual activity,NEK2 (human); compound 0.01 µM,85%
same,residual activity,PLK1 (human); compound 0.01 µM,76%
same,residual activity,BRSK2 (human); compound 0.01 µM,27%
same,residual activity,CHEK1 (human); compound 0.01 µM,12%
same,residual activity,AURKC (human); compound 0.01 µM,71%
same,residual activity,HIPK3 (human); compound 0.01 µM,116%
same,residual activity,DYRK1A (human); compound 0.01 µM,90%
same,residual activity,PRKAA1 or PRKAA2 (rat); compound 0.01 µM,9%
same,residual activity,PAK6 (human); compound 0.01 µM,35%
same,residual activity,MAPK11 (human); compound 0.01 µM,105%
same,residual activity,EEF2K (human); compound 0.01 µM,105%
same,residual activity,RPS6KA1 KD1 KD2 (human); compound 0.01 µM,25%
same,residual activity,AKT2 (human); compound 0.01 µM,77%
same,residual activity,MAPK15 (human); compound 0.01 µM,92%
same,residual activity,STK3 (human); compound 0.01 µM,2%
same,residual activity,LCK (mouse); compound 0.01 µM,50%
same,residual activity,MKNK2 (human); compound 0.01 µM,103%
same,residual activity,MYLK (human); compound 0.01 µM,83%
same,residual activity,MAPKAPK2 (human); compound 0.01 µM,75%
same,residual activity,RPS6KA3 KD1 KD2 (human); compound 0.01 µM,29%
same,residual activity,PIM2 (human); compound 0.01 µM,73%
same,residual activity,MAPK9 (human); compound 0.01 µM,92%
N#CC(=C(\N)Sc1ccccc1N)/C(C#N)=C(/N)Sc1ccccc1N,residual activity,SRC (chicken); compound 10.0 µM,84%
same,residual activity,MAPK12 (human); compound 10.0 µM,90%
same,residual activity,PIM1 (human); compound 10.0 µM,87%
same,residual activity,PHKG1 or PHKG2 (human); compound 10.0 µM,94%
same,residual activity,RPS6KA5 KD1 KD2 (human); compound 10.0 µM,85%
same,residual activity,NEK6 (human); compound 10.0 µM,90%
same,residual activity,NEK2 (human); compound 10.0 µM,89%
same,residual activity,PLK1 (human); compound 10.0 µM,92%
same,residual activity,CHEK1 (human); compound 10.0 µM,83%
same,residual activity,HIPK3 (human); compound 10.0 µM,87%
same,residual activity,DYRK1A (human); compound 10.0 µM,69%
same,residual activity,MAPK11 (human); compound 10.0 µM,91%
same,residual activity,EEF2K (human); compound 10.0 µM,116%
same,residual activity,RPS6KA1 KD1 KD2 (human); compound 10.0 µM,83%
same,residual activity,AKT2 (human); compound 10.0 µM,98%
same,residual activity,MAPK15 (human); compound 10.0 µM,67%
same,residual activity,STK3 (human); compound 10.0 µM,96%
same,residual activity,LCK (mouse); compound 10.0 µM,84%
same,residual activity,MKNK2 (human); compound 10.0 µM,85%
same,residual activity,MYLK (human); compound 10.0 µM,95%
same,residual activity,MAPKAPK2 (human); compound 10.0 µM,95%
same,residual activity,RPS6KA3 KD1 KD2 (human); compound 10.0 µM,81%
same,residual activity,PIM2 (human); compound 10.0 µM,101%
same,residual activity,MAPK9 (human); compound 10.0 µM,73%
O=S(=O)(NCCNC/C=C/c1ccc(Br)cc1)c1cccc2cnccc12,residual activity,SRC (chicken); compound 1.0 µM,100%
same,residual activity,PIM1 (human); compound 1.0 µM,90%
same,residual activity,PHKG1 or PHKG2 (human); compound 1.0 µM,76%
same,residual activity,RPS6KA5 KD1 KD2 (human); compound 1.0 µM,9%
same,residual activity,NEK6 (human); compound 1.0 µM,104%
same,residual activity,NEK2 (human); compound 1.0 µM,102%
same,residual activity,PLK1 (human); compound 1.0 µM,95%
same,residual activity,BRSK2 (human); compound 1.0 µM,82%
same,residual activity,CHEK1 (human); compound 1.0 µM,71%
same,residual activity,AURKC (human); compound 1.0 µM,73%
same,residual activity,HIPK3 (human); compound 1.0 µM,106%
same,residual activity,DYRK1A (human); compound 1.0 µM,96%
same,residual activity,PRKAA1 or PRKAA2 (rat); compound 1.0 µM,73%
same,residual activity,PAK6 (human); compound 1.0 µM,76%
same,residual activity,MAPK11 (human); compound 1.0 µM,91%
same,residual activity,EEF2K (human); compound 1.0 µM,102%
same,residual activity,RPS6KA1 KD1 KD2 (human); compound 1.0 µM,36%
same,residual activity,AKT2 (human); compound 1.0 µM,21%
same,residual activity,MAPK15 (human); compound 1.0 µM,93%
same,residual activity,STK3 (human); compound 1.0 µM,81%
same,residual activity,MKNK2 (human); compound 1.0 µM,97%
same,residual activity,MYLK (human); compound 1.0 µM,91%
same,residual activity,MAPKAPK2 (human); compound 1.0 µM,111%
same,residual activity,RPS6KA3 KD1 KD2 (human); compound 1.0 µM,55%
same,residual activity,PIM2 (human); compound 1.0 µM,91%
CO[C@H]1CC2CC[C@@H](C)[C@@](O)(O2)C(=O)C(=O)N2CCCC[C@H]2C(=O)OC([C@H](C)C[C@@H]2CC[C@@H](O)[C@H](OC)C2)CC(=O)[C@H](C)/C=C(\C)[C@@H](O)[C@@H](OC)C(=O)[C@H](C)C[C@H](C)/C=C/C=C/C=C/1C (some centres not stated),residual activity,SRC (chicken); compound 1.0 µM,86%
same,residual activity,MAPK12 (human); compound 1.0 µM,81%
same,residual activity,CSNK1D (human); compound 1.0 µM,88%
same,residual activity,PIM1 (human); compound 1.0 µM,91%
same,residual activity,PHKG1 or PHKG2 (human); compound 1.0 µM,95%
same,residual activity,RPS6KA5 KD1 KD2 (human); compound 1.0 µM,86%
same,residual activity,NEK6 (human); compound 1.0 µM,95%
same,residual activity,NEK2 (human); compound 1.0 µM,82%
same,residual activity,PLK1 (human); compound 1.0 µM,78%
same,residual activity,BRSK2 (human); compound 1.0 µM,90%
same,residual activity,CHEK1 (human); compound 1.0 µM,97%
same,residual activity,AURKC (human); compound 1.0 µM,97%
same,residual activity,HIPK3 (human); compound 1.0 µM,108%
same,residual activity,DYRK1A (human); compound 1.0 µM,91%
same,residual activity,PRKAA1 or PRKAA2 (rat); compound 1.0 µM,87%
same,residual activity,PAK6 (human); compound 1.0 µM,89%
same,residual activity,MAPK11 (human); compound 1.0 µM,84%
same,residual activity,EEF2K (human); compound 1.0 µM,94%
same,residual activity,RPS6KA1 KD1 KD2 (human); compound 1.0 µM,90%
same,residual activity,AKT2 (human); compound 1.0 µM,85%
same,residual activity,MAPK15 (human); compound 1.0 µM,97%
same,residual activity,STK3 (human); compound 1.0 µM,90%
same,residual activity,LCK (mouse); compound 1.0 µM,79%
same,residual activity,MKNK2 (human); compound 1.0 µM,102%
same,residual activity,MYLK (human); compound 1.0 µM,107%
same,residual activity,MAPKAPK2 (human); compound 1.0 µM,108%
same,residual activity,RPS6KA3 KD1 KD2 (human); compound 1.0 µM,97%
same,residual activity,PIM2 (human); compound 1.0 µM,117%
same,residual activity,MAPK9 (human); compound 1.0 µM,81%
